Source: US8410144B2, “Substituted indolo-pyridinone compounds” (ArQule, Inc., priority 2009, dated 2013)

How the values were obtained:
DLD-1 = experiment: MTS assay, DLD-1 cells; assay type: cell-based; conditions: Homo sapiens, 72 hours, read-out: DLD-1, MTS cell kill % inhibition
Experimental: (§1) Cells were maintained at 37° C., 5% CO2 in DMEM media supplemented with 1% fetal bovine serum, penicillin/streptomycin and fungizone (Invitrogen). Cells were seeded into 96-well tissue culture plates at 3000 per well and cultured at 37° C. for 18 hours. Test compounds were dissolved and diluted to 300× in DMSO then diluted 1:40 in DMEM. Cells were incubated with test compounds for 72 hours followed by incubation with tetrazolium compound (3-(4,5-dimethylthiazol-2-yl)-5-(3-carboxymethoxyphenyl)-2-(4-sulfophenyl)-2H-tetrazolium, inner salt; MTS) and the electron coupling reagent, phenazine methosulfate (PMS) for 4 hours. […] The ability of compounds to inhibit cell growth in this assay is correlated with the reduction of dehydrogenase enzyme activity found in metabolically active cells. The measurement of the absorbance of the formazan was assessed using an ENVISION™ (Perkin Elmer) microplate reader at 492 nm. The calculated IC50 value is the concentration of the test compound that causes a 50% decrease in the absorbance.

KATO III = experiment: MTS assay, KATO III cells; assay type: cell-based; conditions: Homo sapiens, 72 hours, read-out: KATO III, MTS cell kill % inhibition
Experimental: as §1

MDA-MB-231 = experiment: MTS assay, MDA-MB-231 cells; assay type: cell-based; conditions: Homo sapiens, 72 hours, read-out: MDA-MB-231, MTS cell kill % inhibition
Experimental: as §1

NCI-H1299 = experiment: MTS assay, NCI-H1299 cells; assay type: cell-based; conditions: Homo sapiens, 72 hours, read-out: NCI-H1299, MTS cell kill % inhibition
Experimental: as §1

IGF-1R = IGF-1R (Homo sapiens, UniProt P08069); experiment: IGFR1 activity assay (ELISA); assay type: biochemical; conditions: read-out: IGF-1R, PCT INH (30 μM), ELISA
Sequence of IGF-1R (P08069 31-1367): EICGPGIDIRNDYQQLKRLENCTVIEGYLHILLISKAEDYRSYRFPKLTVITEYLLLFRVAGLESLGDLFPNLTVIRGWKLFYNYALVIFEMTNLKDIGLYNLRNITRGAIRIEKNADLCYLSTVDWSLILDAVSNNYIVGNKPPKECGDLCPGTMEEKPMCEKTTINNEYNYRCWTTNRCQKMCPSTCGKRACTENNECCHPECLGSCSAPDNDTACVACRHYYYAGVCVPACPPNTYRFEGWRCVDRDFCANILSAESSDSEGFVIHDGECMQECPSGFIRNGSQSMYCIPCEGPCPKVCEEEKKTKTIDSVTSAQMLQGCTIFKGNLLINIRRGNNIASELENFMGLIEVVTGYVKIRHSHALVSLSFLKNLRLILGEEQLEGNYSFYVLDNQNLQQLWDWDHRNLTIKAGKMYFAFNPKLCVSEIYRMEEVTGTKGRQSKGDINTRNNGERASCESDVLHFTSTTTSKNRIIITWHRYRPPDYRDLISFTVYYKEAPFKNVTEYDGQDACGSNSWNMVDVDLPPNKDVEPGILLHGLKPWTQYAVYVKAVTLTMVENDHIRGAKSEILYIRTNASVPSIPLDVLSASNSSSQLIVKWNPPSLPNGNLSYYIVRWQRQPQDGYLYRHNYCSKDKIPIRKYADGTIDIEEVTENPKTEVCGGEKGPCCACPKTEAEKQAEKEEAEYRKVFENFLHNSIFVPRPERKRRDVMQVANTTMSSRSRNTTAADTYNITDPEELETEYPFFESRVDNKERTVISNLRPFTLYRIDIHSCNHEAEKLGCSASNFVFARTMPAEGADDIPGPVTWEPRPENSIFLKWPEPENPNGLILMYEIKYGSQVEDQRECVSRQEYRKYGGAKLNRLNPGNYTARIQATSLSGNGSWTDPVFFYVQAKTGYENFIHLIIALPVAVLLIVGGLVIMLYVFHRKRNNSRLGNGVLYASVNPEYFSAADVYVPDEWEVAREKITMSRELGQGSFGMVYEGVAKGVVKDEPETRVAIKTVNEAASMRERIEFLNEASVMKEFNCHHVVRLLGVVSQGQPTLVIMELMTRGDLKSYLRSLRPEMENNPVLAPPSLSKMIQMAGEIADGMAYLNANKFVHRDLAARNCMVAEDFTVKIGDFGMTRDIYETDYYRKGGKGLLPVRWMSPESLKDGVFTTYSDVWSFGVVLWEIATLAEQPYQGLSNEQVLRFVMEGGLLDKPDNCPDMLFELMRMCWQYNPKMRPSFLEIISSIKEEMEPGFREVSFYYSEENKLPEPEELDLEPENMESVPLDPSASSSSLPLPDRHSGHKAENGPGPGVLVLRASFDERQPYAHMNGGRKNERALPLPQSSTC
Experimental: The disclosed compounds were assayed for their ability to inhibit insulin-like growth factor receptor-1 (IGFR1). Nunc Maxisorb plates were coated with streptavidin by overnight incubation with 100 μL per well of 1 μg/ml Streptavidin in DPBS. Prior to the start of the experiment, the plates were washed with TBST (3×200 μL) and blocked for at least 1 hour by adding 150 μL of 5% BSA/TBST. The plates were washed with TBST (3×200 μL/well) and left to dry immediately before the capture step.
The disclosed test articles and controls (Staurosporine) were prepared using the following assay buffer at 3× desired final concentration (50 mM Tris-HCl, 0.02 mg/ml BSA, 10 mM MgCl2, 0.1 mM Na3VO4, 1 mM EGTA, 12.5 μM ATP, 0.01% NP-40, 1 mM DTT in 10% glycerol/water). 20 μL of the test compounds (or control), 20 μL IGF1R (0.33 ng/μL final concentration), and 20 μL of Pyk-2 (0.05 ng/μL final concentration) were rapidly added to the reaction plate. The plate was incubated at room temperature for one hour.
50 μL was transferred from the reaction plate to the streptavidin coated plate. The capture plate was incubated at room temperature for 30 minutes, then washed with TBST three times. 100 μL/well of Cell Signaling anti-phospho tyrosine was added to the capture plate at a dilution of 1:3000 in 2% BSA/TBST. The plate was incubated for one hour at room temperature then washed 6× with TBST. 100 μL/well of alkaline phosphatase tagged goat anti mouse antibody was added to the capture plate at a dilution of 1:4000 in 2% BSA/TBST. The plate was incubated for one hour at room temperature then washed with TBST six times.
The fluorescent readout is initiated by the addition of 100 μL/well of Attophos reagent (6 mg/10 mL). The reading is done on the Perkin Elmer Envision system.

SMILES | inhibition at 10 µM (DLD-1) [%] | inhibition at 10 µM (KATO III) [%] | inhibition at 10 µM (MDA-MB-231) [%] | inhibition at 10 µM (NCI-H1299) [%] | inhibition at 30 µM (IGF-1R) [%]
O=C(NCCCN1CCOCC1)c1ccc2[nH]c(-c3ccc[nH]c3=O)c(-c3cccc(F)c3)c2c1 [Compound 82, 3-(3-fluorophenyl)-N-(3-morpholin-4-ylpropyl)-2-(2-oxo-1,2-dihydropyridin-3-yl)-1H-indole-5-carboxamide] | 50 to 79 | 80 to 100 | < 50 | 80 to 100 | 80 to 100
CN(CCc1ccccc1)C(=O)c1ccc2[nH]c(-c3ccc[nH]c3=O)c(-c3ccccc3)c2c1 [Compound 23, N-methyl-2-(2-oxo-1,2-dihydropyridin-3-yl)-3-phenyl-N-(2-phenylethyl)-1H-indole-5-carboxamide] | 80 to 100 | 80 to 100 | 80 to 100 | 80 to 100 | 80 to 100
O=C(NCCCN1CCOCC1)c1ccc2[nH]c(-c3ccc[nH]c3=O)c(-c3ccc(F)cc3F)c2c1 [Compound 77, 3-(2,4-difluorophenyl)-N-(3-morpholin-4-ylpropyl)-2-(2-oxo-1,2-dihydropyridin-3-yl)-1H-indole-5-carboxamide] | < 50 | < 50 | < 50 | < 50 | 80 to 100
COc1ccc(C(C)C)cc1-c1c(-c2ccc[nH]c2=O)[nH]c2ccc(C(=O)NCCCN3CCOCC3)cc12 [Compound 64, 3-(5-isopropyl-2-methoxyphenyl)-N-(3-morpholin-4-ylpropyl)-2-(2-oxo-1,2-dihydropyridin-3-yl)-1H-indole-5-carboxamide] | < 50 | < 50 | < 50 | < 50 | 80 to 100
O=C(c1ccc2[nH]c(-c3ccc[nH]c3=O)c(-c3ccc(-c4ccccc4)cc3)c2c1)N1CCN(CCN2CCOCC2)CC1 [Compound 37, 3-(3-biphenyl-4-yl-5-{[4-(2-morpholin-4-ylethyl)piperazin-1-yl]carbonyl]-1H-indol-2-yl)pyridin-2(1H)-one] | 80 to 100 | 80 to 100 | 80 to 100 | 80 to 100 | 80 to 100
O=C(NCCCN1CCOCC1)c1ccc2[nH]c(-c3ccc[nH]c3=O)c(-c3ccc(F)c(Cl)c3)c2c1 [Compound 76, 3-(3-chloro-4-fluorophenyl)-N-(3-morpholin-4-ylpropyl)-2-(2-oxo-1,2-dihydropyridin-3-yl)-1H-indole-5-carboxamide] | 80 to 100 | 80 to 100 | 80 to 100 | 80 to 100 | < 50
O=C(NCc1ccc(F)cc1F)c1ccc2[nH]c(-c3ccc[nH]c3=O)c(-c3ccccc3)c2c1 [Compound 10, N-(2,4-difluorobenzyl)-2-(2-oxo-1,2-dihydropyridin-3-yl)-3-phenyl-1H-indole-5-carboxamide] | 80 to 100 | 80 to 100 | < 50 | 80 to 100 | 80 to 100
COCC(C)NC(=O)c1ccc2[nH]c(-c3ccc[nH]c3=O)c(-c3ccccc3)c2c1 (stereo not drawn) [Compound 11, N-(2-methoxy-1-methylethyl)-2-(2-oxo-1,2-dihydropyridin-3-yl)-3-phenyl-1H-indole-5-carboxamide] | 50 to 79 | 80 to 100 | < 50 | 50 to 79 | 80 to 100
COc1ccc(-c2c(-c3ccc[nH]c3=O)[nH]c3ccc(C(=O)NCCCN4CCOCC4)cc23)cc1OC [Compound 73, 3-(3,4-dimethoxyphenyl)-N-(3-morpholin-4-ylpropyl)-2-(2-oxo-1,2-dihydropyridin-3-yl)-1H-indole-5-carboxamide] | < 50 | < 50 | < 50 | < 50 | 80 to 100
O=C(NC1CCC1)c1ccc2[nH]c(-c3ccc[nH]c3=O)c(-c3ccccc3)c2c1 [Compound 26, N-cyclobutyl-2-(2-oxo-1,2-dihydropyridin-3-yl)-3-phenyl-1H-indole-5-carboxamide] | 80 to 100 | 80 to 100 | 80 to 100 | 80 to 100 | 80 to 100
O=C(NCc1ccccc1)c1ccc2[nH]c(-c3ccc[nH]c3=O)c(-c3ccc(-c4ccccc4)cc3)c2c1 [Compound 40, N-benzyl-3-biphenyl-4-yl-2-(2-oxo-1,2-dihydropyridin-3-yl)-1H-indole-5-carboxamide] | < 50 | < 50 | < 50 | 50 to 79 | < 50
CCOC(=O)N1CCN(C(=O)c2ccc3[nH]c(-c4ccc[nH]c4=O)c(-c4ccc(-c5ccccc5)cc4)c3c2)CC1 [Compound 44, ethyl 4-{[3-biphenyl-4-yl-2-(2-oxo-1,2-dihydropyridin-3-yl)-1H-indol-5-yl]carbonyl}piperazine-1-carboxylate] | 50 to 79 | 80 to 100 | 80 to 100 | 80 to 100 | 50 to 79
CN(C(=O)c1ccc2[nH]c(-c3ccc[nH]c3=O)c(-c3ccccc3)c2c1)c1ccc(F)cc1 [Compound 20, N-(4-fluorophenyl)-N-methyl-2-(2-oxo-1,2-dihydropyridin-3-yl)-3-phenyl-1H-indole-5-carboxamide] | 80 to 100 | 80 to 100 | 80 to 100 | 80 to 100 | 80 to 100
CN1CCN(C(=O)c2ccc3[nH]c(-c4ccc[nH]c4=O)c(-c4ccc(-c5ccccc5)cc4)c3c2)CC1 [Compound 52, 3-{3-biphenyl-4-yl-5-[(4-methylpiperazin-1-yl)carbonyl]-1H-indol-2-yl}pyridin-2(1H)-one] | 80 to 100 | 80 to 100 | 80 to 100 | 80 to 100 | 80 to 100
COc1cccc(-c2c(-c3ccc[nH]c3=O)[nH]c3ccc(C(=O)NCCCN4CCOCC4)cc23)c1 [Compound 63, 3-(3-methoxyphenyl)-N-(3-morpholin-4-ylpropyl)-2-(2-oxo-1,2-dihydropyridin-3-yl)-1H-indole-5-carboxamide] | 50 to 79 | 80 to 100 | 50 to 79 | 80 to 100 | 80 to 100
O=C(NCCCN1CCOCC1)c1ccc2[nH]c(-c3ccc[nH]c3=O)c(-c3cccc(Cl)c3)c2c1 [Compound 62, 3-(3-chlorophenyl)-N-(3-morpholin-4-ylpropyl)-2-(2-oxo-1,2-dihydropyridin-3-yl)-1H-indole-5-carboxamide] | 80 to 100 | 80 to 100 | 80 to 100 | 80 to 100 | 80 to 100
O=C(NCCCN1CCOCC1)c1ccc2[nH]c(-c3ccc[nH]c3=O)c(-c3ccc4ncccc4c3)c2c1 [Compound 83, N-(3-morpholin-4-ylpropyl)-2-(2-oxo-1,2-dihydropyridin-3-yl)-3-quinolin-6-yl-1H-indole-5-carboxamide] | 80 to 100 | 80 to 100 | 80 to 100 | 80 to 100 | 80 to 100
O=C(NCCCN1CCOCC1)c1ccc2[nH]c(-c3ccc[nH]c3=O)c(-c3ccc(F)c(F)c3)c2c1 [Compound 61, 3-(3,4-difluorophenyl)-N-(3-morpholin-4-ylpropyl)-2-(2-oxo-1,2-dihydropyridin-3-yl)-1H-indole-5-carboxamide] | 80 to 100 | 80 to 100 | 80 to 100 | 80 to 100 | 80 to 100
